Test system: NCI60 cell lines
Assay: NCI60 cell line panel
Format: cell-based, human
Experimental: The Developmental Therapeutics Program (DTP) of NCI has evaluated more than 100,000 pure compounds and more than 34,000 crude extracts against the panel of human tumor cell lines. The resultant data are analyzed using a program called COMPARE, that rank the entire database of tested compounds in the order of the similarity of the responses. […] Thus, the NCI60 databases is highly useful to the cancer research community. Further experiments were conducted that tested some of the active compounds in a panel of NCI60 cell line to relate our compounds with some known inhibitors to have an idea of possible mechanism of action.
In order to understand the selectivity of these compounds in different cancer types, some of them were tested against a panel of 60 cell lines (Table XXXIX).

## CCN(CC)CCCC(C)Nc1cnc(C(=O)Nc2cc(C)cc3cccnc23)cn1 (centres unmarked) [J4, 5-((5-(diethylamino)pentan-2-yl)amino)-N-(6-methylquinolin-8-yl)pyrazine-2-carboxamide]
Breast Cancer, BT-549
  GIPRCNT: % Growth inhibition: 93.26%
Breast Cancer, HS 578T
  GIPRCNT: % Growth inhibition: 79.89%
Breast Cancer, MCF7
  GIPRCNT: % Growth inhibition: 57.27%
Breast Cancer, MDA-MB-231/ATCC
  GIPRCNT: % Growth inhibition: 89.17%
Breast Cancer, MDA-MB-468
  GIPRCNT: % Growth inhibition: 9.358%
Breast Cancer, T-47D
  GIPRCNT: % Growth inhibition: 32.641%
CNS Cancer, SF-268
  GIPRCNT: % Growth inhibition: 66.12%
CNS Cancer, SF-295
  GIPRCNT: % Growth inhibition: 98.94%
CNS Cancer, SF-539
  GIPRCNT: % Growth inhibition: 86.87%
CNS Cancer, SNB-19
  GIPRCNT: % Growth inhibition: 89.24%
CNS Cancer, SNB-75
  GIPRCNT: % Growth inhibition: 78.26%
CNS Cancer, U251
  GIPRCNT: % Growth inhibition: 78.39%
Colon Cancer, COLO 205
  GIPRCNT: % Growth inhibition: 37.0068%
Colon Cancer, HCC-2998
  GIPRCNT: % Growth inhibition: 89.8%
Colon Cancer, HCT-15
  GIPRCNT: % Growth inhibition: 59.89%
Colon Cancer, HCT-116
  GIPRCNT: % Growth inhibition: 18.05%
Colon Cancer, HT29
  GIPRCNT: % Growth inhibition: 37.31%
Colon Cancer, KM12
  GIPRCNT: % Growth inhibition: 97.9%
Colon Cancer, SW-620
  GIPRCNT: % Growth inhibition: 75.26%
Leukemia, CCRF-CEM
  GIPRCNT: % Growth inhibition: 54.24%
Leukemia, HL-60(TB)
  GIPRCNT: % Growth inhibition: 76.8%
Leukemia, K-562
  GIPRCNT: % Growth inhibition: 25.88%
Leukemia, MOLT-4
  GIPRCNT: % Growth inhibition: 46.46%
Leukemia, RPMI-8226
  GIPRCNT: % Growth inhibition: 77.97%
Leukemia, SR
  GIPRCNT: % Growth inhibition: 81.88%
Melanoma, LOX IMVI
  GIPRCNT: % Growth inhibition: 87%
Melanoma, M14
  GIPRCNT: % Growth inhibition: 98.61%
Melanoma, MALME-3M
  GIPRCNT: % Growth inhibition: 107.0521%
Melanoma, MDA-MB-435
  GIPRCNT: % Growth inhibition: 83.68%
Melanoma, SK-MEL-2
  GIPRCNT: % Growth inhibition: 104.3875%
Melanoma, SK-MEL-5
  GIPRCNT: % Growth inhibition: 83.12%
Melanoma, UACC-62
  GIPRCNT: % Growth inhibition: 98.62%
Melanoma, UACC-257
  GIPRCNT: % Growth inhibition: 71.75%
Non-Small Cell Lung Cancer, A549/ATCC
  GIPRCNT: % Growth inhibition: 72.8%
Non-Small Cell Lung Cancer, EKVX
  GIPRCNT: % Growth inhibition: 77.77%
Non-Small Cell Lung Cancer, HOP-62
  GIPRCNT: % Growth inhibition: 91.15%
Non-Small Cell Lung Cancer, HOP-92
  GIPRCNT: % Growth inhibition: 51.4%
Non-Small Cell Lung Cancer, NCI-H23
  GIPRCNT: % Growth inhibition: 96.3%
Non-Small Cell Lung Cancer, NCI-H226
  GIPRCNT: % Growth inhibition: 60.39%
Non-Small Cell Lung Cancer, NCI-H322M
  GIPRCNT: % Growth inhibition: 84.18%
Non-Small Cell Lung Cancer, NCI-H460
  GIPRCNT: % Growth inhibition: 79.5%
Non-Small Cell Lung Cancer, NCI-H522
  GIPRCNT: % Growth inhibition: 96.8365%
Ovarian Cancer, IGROV1
  GIPRCNT: % Growth inhibition: 68.68%
Ovarian Cancer, NCI/ADR-RES
  GIPRCNT: % Growth inhibition: 92.67%
Ovarian Cancer, OVCAR-3
  GIPRCNT: % Growth inhibition: 20.46%
Ovarian Cancer, OVCAR-4
  GIPRCNT: % Growth inhibition: 58.85%
Ovarian Cancer, OVCAR-5
  GIPRCNT: % Growth inhibition: 97.58%
Ovarian Cancer, OVCAR-8
  GIPRCNT: % Growth inhibition: 86.9118%
Ovarian Cancer, SK-OV-3
  GIPRCNT: % Growth inhibition: 103.7568%
Prostate Cancer, DU-145
  GIPRCNT: % Growth inhibition: 80.68%
Prostate Cancer, PC-3
  GIPRCNT: % Growth inhibition: 83.08%
Renal Cancer, 786-0
  GIPRCNT: % Growth inhibition: 88.22%
Renal Cancer, A498
  GIPRCNT: % Growth inhibition: 70.33%
Renal Cancer, ACHN
  GIPRCNT: % Growth inhibition: 77.87%
Renal Cancer, CAKI-1
  GIPRCNT: % Growth inhibition: 93.45%
Renal Cancer, RXF 393
  GIPRCNT: % Growth inhibition: 72.29%
Renal Cancer, SN12C
  GIPRCNT: % Growth inhibition: 77.92%
Renal Cancer, TK-10
  GIPRCNT: % Growth inhibition: 86.86%
Renal Cancer, UO-31
  GIPRCNT: % Growth inhibition: 63.33%

From patent US20220081412A1, “QUINOLINYL-PYRAZINE-CARBOXAMIDE COMPOUNDS AND USES THEREOF” (The Regents of the University of Michigan, priority 2018, published 2022)
